Laboratory results from US12098145B2 (Libra Therapeutics, Inc., priority 2022, dated 2024).
Where two headings read alike, the source gives them in different places.

Biological target: T1, TRPML1 (Homo sapiens, UniProt Q9GZU1)
T1 construct: expressed in transfected cells; host or cells: HEK T-REx cells stably expressing GCaMP6f and TRPML1
Experiment: Cellular TRPML1 assay (FLIPR, GCaMP6f calcium read-out)
Assay type: cell-based
Procedure, shortened: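 Read-out is GCaMP6f fluorescence over 300 s after compound addition in Ca2+-free Tyrode's buffer, final DMSO 0.5%, on FLIPR Tetra. Cells are HEK T-REx stably co-expressing the indicator and TRPML1, plated 24 h earlier in Optimem + 0.5% FBS and pre-incubated ~10 min at room temperature.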

[1] = HEKT-REx/GCaMP6f/TRPML1 cells, FLIPR TETRA, kinetic response over 300 seconds, read-out: TRPML1 FLIPR pEC50 (converted)

T1 sequence (Q9GZU1 whole entry): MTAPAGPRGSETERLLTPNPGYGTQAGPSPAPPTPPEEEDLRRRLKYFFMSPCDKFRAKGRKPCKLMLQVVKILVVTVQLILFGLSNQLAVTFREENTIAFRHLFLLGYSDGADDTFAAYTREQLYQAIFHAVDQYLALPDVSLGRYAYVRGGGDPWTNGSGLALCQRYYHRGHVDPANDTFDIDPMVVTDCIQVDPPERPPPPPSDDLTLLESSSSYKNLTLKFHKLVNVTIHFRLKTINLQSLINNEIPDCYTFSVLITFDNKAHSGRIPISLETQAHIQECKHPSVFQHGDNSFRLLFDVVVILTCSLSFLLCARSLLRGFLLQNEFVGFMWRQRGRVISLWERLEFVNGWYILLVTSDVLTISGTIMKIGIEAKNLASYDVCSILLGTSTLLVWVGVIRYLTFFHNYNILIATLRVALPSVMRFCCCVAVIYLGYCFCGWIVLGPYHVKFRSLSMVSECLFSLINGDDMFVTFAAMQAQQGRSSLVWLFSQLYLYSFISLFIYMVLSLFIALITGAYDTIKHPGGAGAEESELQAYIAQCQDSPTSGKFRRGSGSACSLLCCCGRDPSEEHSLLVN

SMILES | EC50 [1] [nM] | EC50 [nM]
CCc1oc(N2CC(CC)(CC)C2)nc1C(=O)Nc1cc(F)c(OC2CCCOC2)c(F)c1 (centres unmarked) [Example 236, 2-(3,3-diethylazetidin-1-yl)-N-(3,5-difluoro-4-((tetrahydro-2H-pyran-3-yl)oxy)phenyl)-5-ethyloxazole-4-carboxamide] | 10 to 1000 | 
CCc1oc(N2CC3COCC3C2)nc1C(=O)Nc1cc(F)c(OC2CC3C[C@H]3C2)c(F)c1 (stereo partly drawn) [Example 237, N-(4-(cis-bicyclo[3.1.0]hexan-3-yloxy)-3,5-difluorophenyl)-5-ethyl-2-(tetrahydro-1H-furo[3,4-c]pyrrol-5(3H)-yl)oxazole-4-carboxamide] | 10 to 1000 | 
CCc1oc(N2CCCCCC2)nc1C(=O)Nc1cc(F)c(O[C@@H]2C[C@@H]3C[C@@H]3C2)c(F)c1 [Example 242, 2-(azepan-1-yl)-N-(4-(cis-bicyclo[3.1.0]hexan-3-yloxy)-3,5-difluorophenyl)-5-ethyloxazole-4-carboxamide] | 10 to 1000 | 
CCc1oc(N2CC(CC)(CC)C2)nc1C(=O)Nc1cc(F)c(O[C@@H]2C[C@@H]3C[C@@H]3C2)c(F)c1 [Example 243, N-(4-(cis-bicyclo[3.1.0]hexan-3-yloxy)-3,5-difluorophenyl)-2-(3,3-diethylazetidin-1-yl)-5-ethyloxazole-4-carboxamide] | 10 to 1000 | 
CCc1oc(N2CC(CC)(OC)C2)nc1C(=O)Nc1ccc(O[C@@H]2C[C@@H]3C[C@@H]3C2)c(F)c1 [Example 246, N-(4-(cis-bicyclo[3.1.0]hexan-3-yloxy)-3-fluorophenyl)-5-ethyl-2-(3-ethyl-3-methoxyazetidin-1-yl)oxazole-4-carboxamide] | 10 to 1000 | 
CCc1oc(N2CC(C)(OC)C2)nc1C(=O)Nc1ccc(O[C@@H]2C[C@@H]3C[C@@H]3C2)c(C)c1 [Example 248, N-(4-(cis-bicyclo[3.1.0]hexan-3-yloxy)-3-methylphenyl)-5-ethyl-2-(3-methoxy-3-methylazetidin-1-yl)oxazole-4-carboxamide] | 1000 to 10000 | 
CCc1oc(N2CC(CC)(OC)C2)nc1C(=O)Nc1ccc(O[C@@H]2C[C@@H]3C[C@@H]3C2)c(F)c1F [Example 250] | 10000 to 100000 | 
CCc1oc(N2CC(CC)(OC)C2)nc1C(=O)Nc1cc(F)c(O[C@@H]2C[C@@H]3C[C@@H]3C2)cc1F [Example 251, N-(4-(cis-bicyclo[3.1.0]hexan-3-yloxy)-2,5-difluorophenyl)-5-ethyl-2-(3-ethyl-3-methoxyazetidin-1-yl)oxazole-4-carboxamide] | 1000 to 10000 | 
CCc1oc(N2CCCC2)nc1C(=O)Nc1cc(C)c(NC2CC3CC(C3)C2)c(F)c1 (centres unmarked) [Example 252, N-(4-(bicyclo[3.1.1]heptan-3-ylamino)-3-fluoro-5-methylphenyl)-5-ethyl-2-(pyrrolidin-1-yl)oxazole-4-carboxamide] | 1000 to 10000 | 
CCc1oc(N2CC(CC)(CC)C2)nc1C(=O)Nc1cc(C)c(NC2CC3CC(C3)C2)c(F)c1 (centres unmarked) [Example 253, N-(4-(bicyclo[3.1.1]heptan-3-ylamino)-3-fluoro-5-methylphenyl)-2-(3,3-diethylazetidin-1-yl)-5-ethyloxazole-4-carboxamide] | 1000 to 10000 | 
CCc1oc(N2CC3COCC3C2)nc1C(=O)Nc1cc(F)c(N2CC3CC(C3)C2)c(F)c1 (centres unmarked) [Example 257, N-(4-(3-azabicyclo[3.1.1]heptan-3-yl)-3,5-difluorophenyl)-5-ethyl-2-(tetrahydro-1H-furo[3,4-c]pyrrol-5(3H)-yl)oxazole-4-carboxamide] | 1000 to 10000 | 
CCc1oc(N2CC(C)(OC)C2)nc1C(=O)Nc1cc(F)c(N2CC3CC(C3)C2)c(F)c1 [Example 258, N-(4-(3-azabicyclo[3.1.1]heptan-3-yl)-3,5-difluorophenyl)-5-ethyl-2-(3-methoxy-3-methylazetidin-1-yl)oxazole-4-carboxamide] | 1000 to 10000 | 
COC1(C)CN(c2nc(C(=O)Nc3cc(C)c(O[C@@H]4C[C@@H]5C[C@@H]5C4)c(O)c3)c(CC(F)(F)F)o2)C1 [Example 263, N-(4-(cis-bicyclo[3.1.0]hexan-3-yloxy)-3-hydroxy-5-methylphenyl)-2-(3-methoxy-3-methylazetidin-1-yl)-5-(2,2,2-trifluoroethyl)oxazole-4-carboxamide] | 10 to 1000 | 
COC1(C)CN(c2nc(C(=O)Nc3cc(O)c(OC4CC5CC(C5)C4)c(F)c3)c(CC(F)(F)F)o2)C1 (centres unmarked) [Example 265, N-(4-(bicyclo[3.1.1]heptan-3-yloxy)-3-fluoro-5-hydroxyphenyl)-2-(3-methoxy-3-methylazetidin-1-yl)-5-(2,2,2-trifluoroethyl)oxazole-4-carboxamide] | 1000 to 10000 | 
CCC1(OC)CN(c2nc(C(=O)Nc3cc(O)c(OC4CC5CC(C5)C4)c(F)c3)c(CC(F)(F)F)o2)C1 (centres unmarked) [Example 266, N-(4-(bicyclo[3.1.1]heptan-3-yloxy)-3-fluoro-5-hydroxyphenyl)-2-(3-ethyl-3-methoxyazetidin-1-yl)-5-(2,2,2-trifluoroethyl)oxazole-4-carboxamide] | 1000 to 10000 | 
COC1(C)CN(c2nc(C(=O)Nc3cc(O)c(O[C@@H]4C[C@@H]5C[C@@H]5C4)c(F)c3)c(CC(F)(F)F)o2)C1 [Example 267, N-(4-(cis-bicyclo[3.1.0]hexan-3-yloxy)-3-fluoro-5-hydroxyphenyl)-2-(3-methoxy-3-methylazetidin-1-yl)-5-(2,2,2-trifluoroethyl)oxazole-4-carboxamide] | 1000 to 10000 | 
CCC1(OC)CN(c2nc(C(=O)Nc3cc(O)c(O[C@@H]4C[C@@H]5C[C@@H]5C4)c(F)c3)c(CC(F)(F)F)o2)C1 [Example 268, N-(4-(cis-bicyclo[3.1.0]hexan-3-yloxy)-3-fluoro-5-hydroxyphenyl)-2-(3-ethyl-3-methoxyazetidin-1-yl)-5-(2,2,2-trifluoroethyl)oxazole-4-carboxamide] | 1000 to 10000 | 
CCC1(CC)CN(c2nc(C(=O)Nc3ccc(O[C@@H]4C[C@@H]5C[C@@H]5C4)c(O)c3)c(CC(F)(F)F)o2)C1 [Example 270, N-(4-(cis-bicyclo[3.1.0]hexan-3-yloxy)-3-hydroxyphenyl)-2-(3,3-diethylazetidin-1-yl)-5-(2,2,2-trifluoroethyl)oxazole-4-carboxamide] | 1000 to 10000 | 
CCc1oc(N2CC(C)(OC)C2)nc1C(=O)Nc1cc(O)c(OC2CC3C[C@@H]3C2)c(Cl)c1 (stereo partly drawn) [Example 271, N-(4-(cis-bicyclo[3.1.0]hexan-3-yloxy)-3-chloro-5-hydroxyphenyl)-5-ethyl-2-(3-methoxy-3-methylazetidin-1-yl)oxazole-4-carboxamide] | 1000 to 10000 | 
CCC1(OC)CN(c2nc(C(=O)Nc3cc(C)c(N4C5CCCC4CC5)c(F)c3)c(CCF)o2)C1 [Example 291, N-(4-(8-azabicyclo[3.2.1]octan-8-yl)-3-fluoro-5-methylphenyl)-2-(3-ethyl-3-methoxyazetidin-1-yl)-5-(2-fluoroethyl)oxazole-4-carboxamide] |  | 10 to 1000

Further lines, with some results ahead:

EC50 [1] [nM] | SMILES | EC50 [nM]
10 to 1000 | CCC1(CC)CN(c2nc(C(=O)Nc3cc(F)c(O[C@@H]4C[C@@H]5C[C@@H]5C4)c(F)c3)c(C)o2)C1 [Example 273, N-(4-(cis-bicyclo[3.1.0]hexan-3-yloxy)-3,5-difluorophenyl)-2-(3,3-diethylazetidin-1-yl)-5-methyloxazole-4-carboxamide] | 
10 to 1000 | CCCc1oc(N2CCCC2)nc1C(=O)Nc1cc(F)c(O[C@@H]2C[C@@H]3C[C@@H]3C2)c(F)c1 [Example 274, N-(4-(cis-bicyclo[3.1.0]hexan-3-yloxy)-3,5-difluorophenyl)-5-propyl-2-(pyrrolidin-1-yl)oxazole-4-carboxamide] | 
1000 to 10000 | CCC1(CC)CN(c2nc(C(=O)Nc3cc(C)c(NC4CC5CC(C5)C4)c(F)c3)c(CCF)o2)C1 (centres unmarked) [Example 292, N-(4-(bicyclo[3.1.1]heptan-3-ylamino)-3-fluoro-5-methylphenyl)-2-(3,3-diethylazetidin-1-yl)-5-(2-fluoroethyl)oxazole-4-carboxamide] | 
1000 to 10000 | CCC1(CC)CN(c2nc(C(=O)Nc3cc(C)c(O[C@@H]4C[C@@H]5C[C@@H]5C4)c(F)c3)c(CN3CCC3)o2)C1 [Example 297, 5-(azetidin-1-ylmethyl)-N-(4-(cis-bicyclo[3.1.0]hexan-3-yloxy)-3-fluoro-5-methylphenyl)-2-(3,3-diethylazetidin-1-yl)oxazole-4-carboxamide] | 
1000 to 10000 | CCC1(CC)CN(c2nc(C(=O)Nc3cc(C)c(O[C@@H]4C[C@@H]5C[C@@H]5C4)c(F)c3)c(CN3CCCC3)o2)C1 [Example 298, N-(4-(cis-bicyclo[3.1.0]hexan-3-yloxy)-3-fluoro-5-methylphenyl)-2-(3,3-diethylazetidin-1-yl)-5-(pyrrolidin-1-ylmethyl)oxazole-4-carboxamide] | 
1000 to 10000 | CCC1(CC)CN(c2nc(C(=O)Nc3cc(F)c(O[C@@H]4C[C@@H]5C[C@@H]5C4)c(F)c3)c(CN3CCC3)o2)C1 [Example 300, 5-(azetidin-1-ylmethyl)-N-(4-(cis-bicyclo[3.1.0]hexan-3-yloxy)-3,5-difluorophenyl)-2-(3,3-diethylazetidin-1-yl)oxazole-4-carboxamide] | 
1000 to 10000 | CCC1(CC)CN(c2nc(C(=O)Nc3cc(F)c(O[C@@H]4C[C@@H]5C[C@@H]5C4)c(F)c3)c(CN(C)C)o2)C1 [Example 301, N-(4-(cis-bicyclo[3.1.0]hexan-3-yloxy)-3,5-difluorophenyl)-2-(3,3-diethylazetidin-1-yl)-5-((dimethylamino)methyl)oxazole-4-carboxamide] | 
1000 to 10000 | Cc1cc(NC(=O)c2nc(N3CCCC3)oc2CN2CCC2)cc(F)c1O[C@@H]1C[C@@H]2C[C@@H]2C1 [Example 305, 5-(azetidin-1-ylmethyl)-N-(4-(cis-bicyclo[3.1.0]hexan-3-yloxy)-3-fluoro-5-methylphenyl)-2-(pyrrolidin-1-yl)oxazole-4-carboxamide] | 
1000 to 10000 | O=C(Nc1cc(F)c(O[C@@H]2C[C@@H]3C[C@@H]3C2)c(F)c1)c1nc(N2CCCC2)oc1CN1CCC1 [Example 306, 5-(azetidin-1-ylmethyl)-N-(4-(cis-bicyclo[3.1.0]hexan-3-yloxy)-3,5-difluorophenyl)-2-(pyrrolidin-1-yl)oxazole-4-carboxamide] | 
